Measured values reported in patent US8765060B2, “Chemical sensor” (Regents of the University of Minnesota, priority 2005, dated 2014).
Where two headings read alike, the source gives them in different places. Each block holds one molecule with its values, some of them ahead of it.

Columns and labels:
[1] = Solubility in perfluoro(tributylamine)
[2] = assuming 1:1 stoichiometry; cited from earlier work
[3] = assuming 1:1 stoichiometry; cited from earlier work; remark: listed apart in the source
[4] = Extraction of lipophilic acids into fluorous membranes, 1H NMR; assay type: physicochemical; conditions: aqueous buffered solutions of 10^−3.5 M acid; 1H NMR of membrane
[5] = cited from earlier work
[6] = cited from earlier work; remark: listed apart in the source
[7] = cited from earlier work; remark: listed apart in the source
[8] = PFPHP saturated with substance, salts judged by resistance of soaked porous PTFE membranes

Molecule: S=C(NCc1cccc(CNC(=S)Nc2ccccc2)c1)Nc1ccccc1
solubility in PFPHP (physchem): poorly soluble

Molecule: FC(F)(F)c1cc([B-](c2cc(C(F)(F)F)cc(C(F)(F)F)c2)(c2cc(C(F)(F)F)cc(C(F)(F)F)c2)c2cc(C(F)(F)F)cc(C(F)(F)F)c2)cc(C(F)(F)F)c1.[Na+]
solubility in PFPHP (physchem): not soluble enough

Molecule: OC(c1cccc(C(O)(C(F)(F)F)C(F)(F)F)c1)(C(F)(F)F)C(F)(F)F
solubility in perfluoro(tributylamine) [1]: poorly soluble
solubility in PFPHP (physchem; [8]): poorly soluble

Molecule: FC(OC(F)(F)C(F)(OC(F)(F)C(F)(OC(F)(F)C(F)(OC(F)(F)C(F)(F)C(F)(F)F)C(F)(F)F)C(F)(F)F)C(F)(F)F)C(F)(F)F (centres unmarked) [2H-perfluoro-5,8,11-trimethyl-3,6,9,12-tetraoxapentadecane]
formal association constant with Na^+ [2]: 2.3 M⁻¹
formal association constant with Li^+ [3]: 1.5 M⁻¹

Molecule: CCCCCCCCCCCC[N+](CCCCCCCCCCCC)(CCCCCCCCCCCC)CCCCCCCCCCCC.Clc1ccc([B-](c2ccc(Cl)cc2)(c2ccc(Cl)cc2)c2ccc(Cl)cc2)cc1 [ETH 500, tetradecylammonim tetrakis[p-chlorophenyl]borate]
solubility in PFPHP (physchem; [8]): not sufficiently soluble

Molecule: C[C@H](CCC(=O)O)[C@H]1CC[C@H]2[C@@H]3[C@H](O)C[C@@H]4C[C@H](O)CC[C@]4(C)[C@H]3C[C@H](O)[C@]12C [cholic acid]
extraction into fluorous membranes [4]: not extracted to any significant amount

Molecule: FC(F)(F)C(F)(F)C(F)(F)C(F)(F)C(F)(F)C(F)(F)c1cc([B-](c2cc(C(F)(F)C(F)(F)C(F)(F)C(F)(F)C(F)(F)C(F)(F)F)cc(C(F)(F)C(F)(F)C(F)(F)C(F)(F)C(F)(F)C(F)(F)F)c2)(c2cc(C(F)(F)C(F)(F)C(F)(F)C(F)(F)C(F)(F)C(F)(F)F)cc(C(F)(F)C(F)(F)C(F)(F)C(F)(F)C(F)(F)C(F)(F)F)c2)c2cc(C(F)(F)C(F)(F)C(F)(F)C(F)(F)C(F)(F)C(F)(F)F)cc(C(F)(F)C(F)(F)C(F)(F)C(F)(F)C(F)(F)C(F)(F)F)c2)cc(C(F)(F)C(F)(F)C(F)(F)C(F)(F)C(F)(F)C(F)(F)F)c1.[Na+] [compound 2]
solubility (physchem; organic solvent or mixture): 1400 µM

Molecule: c1ccc(CSCc2ccccc2)cc1 [dibenzyl sulfide]
solubility in PFPHP (physchem): poorly soluble

Molecule: CCCCCCCC(=O)O [octanoic acid]
extraction into fluorous membranes [4]: not extracted to any significant amount

Molecule: FC(F)(F)C(F)(F)C(F)(F)C(F)(F)C(F)(F)N(C(F)(F)C(F)(F)C(F)(F)C(F)(F)C(F)(F)F)C(F)(F)C(F)(F)C(F)(F)C(F)(F)C(F)(F)F [perfluorotripentylamine]
formal pKa [5]: smaller than −0.5
association with any ion tested ([5]; inorganic monocations): does not undergo measurable association

Molecule: CCCC[N+](CCCC)(CCCC)CCCC.F[B-](F)(F)F [tetrabutyl-ammonium tetrafluoroborate]
log Kip ([6]; in α,α,α-trifluorotoluene): 5.4

Molecule: CCCCCCCC[N+](CCCCCCCC)(CCCCCCCC)CCCCCCCC.[Cl-] [tetraoctylammonium chloride]
log Kip ([6]; in 98.2 toluene-nitrobenzene): 14.9

Molecule: CC(C)[C@@H]1NC(=O)[C@H](C)OC(=O)[C@@H](C(C)C)NC(=O)[C@@H](C(C)C)OC(=O)[C@H](C(C)C)NC(=O)[C@H](C)OC(=O)[C@@H](C(C)C)NC(=O)[C@@H](C(C)C)OC(=O)[C@H](C(C)C)NC(=O)[C@H](C)OC(=O)[C@@H](C(C)C)NC(=O)[C@@H](C(C)C)OC1=O [valinomycin]
solubility in perfluoro(tributylamine) [1]: poorly soluble
log K^potK,Na ([7]; after exposure to an extract of urine): −3.1
log K^potK,Na ([7]; before exposure to an extract of urine): −3.9
solubility in PFPHP (physchem; [8]): poorly soluble

Molecule: tetrakis-(decyl)ammonium tetraphenylborate
log Kip ([6]; in cyclohexane): 14.2

The next lines start with the values.

solubility in PFPHP (physchem): poorly soluble
Molecule: CCCCCCCCC(CCCCCCCC)CN=c1cc2oc3cc(N(CC)CC)ccc3nc-2c2ccccc12 [Chromoionophroes III]

solubility in PFPHP (physchem): poorly soluble
Molecule: CCCCC(CCCC)OC(=O)CCCCCCCCCCOC(=O)Cc1ccc(N=c2cc3oc4cc(N(C)C)ccc4nc-3c3ccccc23)cc1 [Chromoionophroes II]

solubility in PFPHP (physchem): poorly soluble
Molecule: CCCCCCCCCCCCCCCCCC(=O)N=c1cc2oc3cc(N(CC)CC)ccc3nc-2c2ccccc12 [Chromoionophroes I]

solubility in PFPHP (physchem): poorly soluble
Molecule: CCCCCCCCCCCCCCCCCCOC(=O)c1ccncc1 [Hydrogen Ionophre IV]

solubility in PFPHP (physchem): poorly soluble
Molecule: CCCCCCCCCCCCN(CCCCCCCCCCCC)CCCCCCCCCCCC [tridodecylamine]

solubility in PFPHP (physchem): not soluble enough
Molecule: CCCCCCCCCCCC[N+](C)(CCCCCCCCCCCC)CCCCCCCCCCCC.[Cl-] [tridodecylmethylammonium chloride]
